Measurements taken from article PMC9916778 (International Journal of Molecular Sciences, 2023).
Like-named read-outs stand apart in the source and are kept apart here.

What was measured:
[1] = test system: A2780 ovarian carcinoma cells; assay: In vitro cytotoxicity (MTT assay), A2780; type: cell-based, human
Method: (§1) The reference normal cell line of human fetal fibroblasts (MRC-5) was obtained from the same commercial source and maintained according to the producer’s instructions. The half-maximal inhibitory concentrations (IC50) were calculated from dose–response curves by means of the GraphPad Prism 6 software (GraphPad Software, San Diego, CA, USA).

[2] = test system: A2780R Cisplatin-resistant ovarian carcinoma cells; assay: In vitro cytotoxicity (MTT assay), A2780R; type: cell-based, human; details: ± standard deviation, triplicate
Method: as §1, with “The testing was performed on the ovarian carcinoma (A2780), Cisplatin-resistant ovarian carcinoma (A2780R), prostate adenocarcinoma (PC-3), prostate carcinoma (22Rv1), and leukemia monocytic (THP-1) and intestinal colon adenocarcinoma (LS180) human cell lines that were obtained from the ATCC collection of cell lines and cultivated according to the producer’s instructions. The reference” for “The reference”

[3] = test system: PC-3 prostate adenocarcinoma cells; assay: In vitro cytotoxicity (MTT assay), PC-3; type: cell-based, human; details: ± standard deviation, triplicate
Method: as §1, with “The testing was performed on the ovarian carcinoma (A2780), Cisplatin-resistant ovarian carcinoma (A2780R), prostate adenocarcinoma (PC-3), prostate carcinoma (22Rv1), and leukemia monocytic (THP-1) and intestinal colon adenocarcinoma (LS180) human cell lines that were obtained from the ATCC collection of cell lines and cultivated according to the producer’s instructions. The reference” for “The reference”

[4] = test system: MRC5 human fetal fibroblasts; assay: In vitro cytotoxicity (MTT assay), normal MRC-5 fibroblasts; type: cell-based; details: ± standard deviation, triplicate, read-out: IC50, MRC5 (healthy cells)
Method: as §1, with “The testing was performed on the ovarian carcinoma (A2780), Cisplatin-resistant ovarian carcinoma (A2780R), prostate adenocarcinoma (PC-3), prostate carcinoma (22Rv1), and leukemia monocytic (THP-1) and intestinal colon adenocarcinoma (LS180) human cell lines that were obtained from the ATCC collection of cell lines and cultivated according to the producer’s instructions. The reference” for “The reference”

[5] = test system: A2780 cells; assay: Cell cycle analysis (flow cytometry); type: cell-based, human; details: A2780, half-cytotoxic concentration, 24 h
Method: After 24 h, the cells were treated with a 4 µM solution of complex (1) and cultivated for the next 24 h. Then, the cells were washed once with PBS (0.1 M, pH 7.4), and cell cycle analysis was performed using a BD Cycletest^TM Plus DNA kit (Becton Dickinson, Franklin Lakes, NJ, USA) according to the manufacturer’s protocol. The data were acquired using a BD FACSVerse flow cytometer (Becton Dickinson, USA) in three independent experiments, each performed in duplicate, while at least 5 × 10^3 events were recorded for each sample.

[6] = test system: A2780 cells; assay: Induction of apoptosis, Annexin V-FITC/PI staining; type: cell-based, human; details: A2780, half-cytotoxic concentration, 24 h
Method: (§2) The induction of cell death by complex (1) was studied by two methods in the A2780 cell line. Firstly, the induction of apoptosis was tested using an Annexin V-FITC/PI commercial kit (V13242, Thermo Fisher Scientific, USA). Second, caspase 3/7 activation was monitored using the CellEvent™ Caspase-3/7 Green Flow Cytometry Assay Kit (C10427, Thermo Fisher Scientific, USA). Both assays were performed according to the manufacturers’ protocols with one modification in the caspase induction assay: the use of CellEvent^TM Caspase-3/7 Green Detection Reagent was only for the detection of caspase 3/7 activation. The general procedure was as follows: 5 × 10^4 cells per well were seeded in a 24-well cell culture plate, and after 24 h, the cells were treated with 4 µM solution of complex (1) and cultivated for next 24 h. […] The trypsin was blocked by adding the cell culture medium to a final volume of 500 µL, and the resulting cell suspensions were divided into two separate 250 µL aliquots. The first set of aliquots was used to evaluate the Annexin V-FITC/PI assay, whilst the second one was used for the caspase 3/7 activation assay. Both assays were performed using a BD FACSVerse flow cytometer (Becton Dickinson, USA) in three independent experiments, each performed in duplicate.

[7] = test system: caspases 3/7; assay: Caspase 3/7 activation (flow cytometry); type: cell-based, human; details: A2780, half-cytotoxic concentration, 24 h
Method: as §2

[8] = test system: A2780 cells; assay: Induction of autophagy (CYTO-ID kit); type: cell-based, human; details: A2780, half-cytotoxic concentration, 24 h
Method: The induction of autophagy by complex (1) was studied using a CYTO-ID® Autophagy Detection Kit 2.0 (ENZO, New York, NY, USA) according to the manufacturer’s protocol. Briefly, the A2780 cells were seeded in a 24-well cell culture plate at 5 × 10^4 cells per well and cultivated for 24 h. The next day, the cells were treated with complex (1) at 4 µM. […] Then, the cells were stained with CYTO-ID® Green stain solution and incubated for 30 min in the dark. After the final wash with PBS, the cell suspensions were analyzed using the BD FACSVerse flow cytometer (Becton Dickinson, USA) in three separate experiments, while at least 10^4 events were recorded for each sample prepared in duplicates. The cells incubated with the mixture of chloroquine (10 µM) and rapamycin (0.5 µM) for 18 h were used as a positive control.

[9] = test system: THP1-Blue™ NF-κB cells; assay: Cell viability, CCK-8, serum-free medium; type: cell-based, human
Method: The cells were cultivated in RPMI (Roswell Park Memorial Institute) 1640 medium (Biosera; Nuaille, France) supplemented with 10% fetal bovine serum (FBS) and antibiotics (100 U/mL penicillin and […] streptomycin) (both from Merck). All further experiments were performed in serum-free medium. The effect of the test compounds dissolved in DMF on cell viability after 24 h incubation was determined using a Cell Counting Kit-8 (CCK-8; Merck) according to the manufacturer’s instructions, similarly as previously described.

[10] = test system: NF-κB; assay: NF-κB activity in LPS-challenged cells (SEAP reporter); type: cell-based, human; details: 100 nM, 1 h pre-treatment, LPS 24 h, THP1-Blue NF-κB monocytes
Method: The effect of the tested compounds to influence the function of transcription factor NF-κB was determined on lipopolysaccharide (LPS)-challenged THP1-Blue™ NF-κB cells as we described previously. […] After 24 h incubation, the activity of NF-κB was determined as the amount of secreted embryonic alkaline phosphatase using Quanti-Blue™ medium (Invivogen).

[11] = MTT, 24 h incubation, ± standard deviation, triplicate, read-out: IC50, A2780

| SMILES | IC50 ([1]; 24 h incubation, read-out: Time-dependent in vitro cytotoxicity (IC50), A2780, 24 h) [µM] | IC50 ([1]; 72 h incubation, read-out: Time-dependent in vitro cytotoxicity (IC50), A2780, 72 h) [µM] | IC50 [1, 11] [µM] | IC50 ([1]; read-out: Time-dependent in vitro cytotoxicity (IC50), A2780, 48 h, 48 h incubation) [µM] | IC50 [2] [µM] | IC50 [3] [µM] | IC50 [4] [µM] | Population of cells in G2/M phase [5] [%] | Population of cells in S phase [5] [%] | Number of cells in the G0/G1 phase ([5]; vs untreated control) | Cells in late stage apoptosis (Annexin V+/PI+) [6] | Activation of caspases 3/7 [7] | Induction of autophagy [8] | IC50 ([9]; THP1-Blue NF-κB cells, serum-free medium, 24 h treatment, CCK-8, read-out: IC50 ± SEM, cytotoxic effect) [µM] | Effect on LPS-stimulated NF-κB activity [10] | IC50 ([1]; read-out: IC50, A2780, after 48 h and 72 h incubation, 48 h and 72 h incubation, insignificant changes) [µM] | Effect on the cell cycle [5] | Cells in early stage apoptosis (Annexin V+/PI-) [6] | Cells with active executioner caspases 3/7 [7] | IC50 [9] [µM] |
| --- | --- | --- | --- | --- | --- | --- | --- | --- | --- | --- | --- | --- | --- | --- | --- | --- | --- | --- | --- | --- |
| CC[PH](CC)(CC)[Au][S][C@@H]1O[C@H](COC(C)=O)[C@@H](OC(C)=O)[C@H](OC(C)=O)[C@H]1OC(C)=O [Auranofin, [3,4,5-triacetyloxy-6-(acetyloxymethyl)-oxane-2-thiolate-(triethylphosphine)gold(I)]] | 3.4 ± 0.9 | 2 ± 0.1 | 3.4 ± 0.9 | 2.1 ± 0.4 | 3.4 ± 0.6 | 3.7 ± 0.7 | 3.78 ± 0.01 | 23.3 ± 3.6 | 19.4 ± 0.5 | significant decrease in the number of cells in the G0/G1 phase | around 80% | the most effective gold(I) complex | not shown to cause metabolic stress strong enough to induce the autophagy | 0.5 ± 1.1 | the only gold(I) complex able to inhibit the activity of pro-inflammatory transcription factor NF-κB |  |  |  |  |  |
| [Cl][Au].c1ccc(P(c2ccccc2)c2ccccc2)cc1 [[Au(PPh3)Cl]] |  |  | 3.5 ± 0.5 |  | 5.2 ± 0.2 | 9.9 ± 0.4 | 17 ± 0.5 |  |  |  | around 30% |  | significantly induced the autophagy |  | possessed some activity | ~3 | practically no effect on the cell cycle | around 10% | around 50% | 1.1 ± 1.1 |
